Laboratory results as given in patent publication EP2292587A1, “PHARMACEUTICAL COMPOSITION FOR INHIBITING THE TRANSCRIPTION FACTOR INDUCIBLE BY HYPOXIA, MODULATORS OF PATHOLOGICAL PROCESSES OF ANGIOGENESIS, ONCOGENESIS, INFLAMMATION, APOPTOSIS, AND CELLULAR THERAPY” (Fundacion De La Comunidad Valenciana Centro De …, priority 2008, dated 2009).
Where two headings read alike, the source gives them in different places.

Key:
HIF = assay: luciferase cell assay based on the HIF response elements (HRE), HeLa 9XHRE-LUC; design: species or system human; conditions: Homo sapiens, HeLa
Text: In order to identify direct inhibitors of the activity of HIF, a stable recombinant line was first constructed from the cervical tumor line, known in scientific literature as HeLa, which contained the deoxyribonucleic acid (DNA) sequences of the region located between positions -985 and -951 of the human vascular endothelial growth factor (hVEGF), repeated nine times (9X) and fused to the luciferase reporter gene (LUC). This plasmid, provided by Dr. Manuel Ortiz de Landazuri from the Hospital de La Princesa of Madrid, called 9XHRE-LUC, was prepared using a commercial kit (Endofree Maxi-Prep; Qiagen, Inc., Valencia, CA). The transfections were performed with FuGene6 (Roche, cat.1814443) according to the manufacturer's instructions, the µg DNA: µg FuGene ratio was 1:3. The transfected cell lines were generated by cotransfection with the vector pCMV-Hygrom which expressed a hygromycin resistance gene in mammalian cells, allowing the selection of the transfected clones. After 48 hours, the growth medium was substituted with fresh medium containing 100 µg/ml hygromycin (Sigma), the clones resistant to the antibiotic were collected and analyzed by means of RT-PCR to select the clone with the desired construct. Routinely, the HeLa 9XHRE-LUC cell line was maintained in exponential growth by means of performing subcultures in DMEM (Invitrogen-Life Technologies, Inc., Carlsbad, CA), supplemented with 10% inactivated fetal bovine serum (Whittacker Bioproducts), penicillin (50 IU/ml), streptomycin (50 µg/ml) (Invitrogen-Life Technologies, Inc., Carlsbad, CA). The cells were cultured at 37°C with a humidified atmosphere containing 5% CO2 and 300 nM Desferoxamine (DFX; Sigma St. Louis, MO).
The compounds of the Collection of the CIPF, coming from a selection of commercial collections of Sigma-Aldrich, were solubilized in DMSO at a final concentration of 5 mM and preserved at -80°C. The concentration of these compounds in the luciferase assay was 1 mcM finally in the well of the multi-well plate in which the reaction was carried out. The luciferase assays were performed in white 96-well plates (Valtecknova ref. 3917), using the kit Bright-Glo™ Luciferase Assay System (Promega, Inc., Madison, WI) following the instructions supplied by the manufacturer.
According to the methodology of the cell assay based on the HIF response elements (Example 1), the intermediate compounds of the synthesis and several synthesized analogs were tested to obtain the SAR of FM19G11.

HCT116/p53+/+ cells = assay: cell cycle distribution by flow cytometry, HCT116/p53+/+; format: cell-based, human
Text: It was investigated if the activation of DDR by FM19G11 caused a delay in the cycle progress through the G1/S phases in HCT116 tumor cells, as has been described for other DNA-damaging agents (.Lim, DS, Kim, ST, Xu, B, Maser, RS, Lin, J, Petrini, JH et al., (2000) ATM phosphorylates p95/nbs1 in an S-phase checkpoint pathway. Nature 404: 613-7.; Jazayeri, A, Falck, J, Lukas, C, Bartek, J, Smith, GC, Lukas, J et al., (2006) ATM- and cell cycle-dependent regulation of ATR in response to DNA double-strand breaks. Nat Cell Biol 8: 37-45; Liu, JS, Kuo, SR, Beerman, TA and Melendy, T, (2003) Induction of DNA damage responses by adozelesin is S phase-specific and dependent on active replication forks. Mol Cancer Ther 2: 41-7; Ranjan, P and Heintz, NH, (2006) S-phase arrest by reactive nitrogen species is bypassed by okadaic acid, an inhibitor of protein phosphatases PP1/PP2A. Free Radic Biol Med 40: 247-59.). The HCT116 p53+/+ and HCT116 p53-/- cells were exposed for 3 or 6 days to the carrier (DMSO) or to FM19G11 (0.5, 1, 5, 10 µM). […] (Figure 24).
A- The HCT116/p53+/+ cells and B-HCT116/p53-/- cells were exposed to different concentrations of FM19G11 (0.5, 1, 5, 10 µM) or carrier for 3 or 6 days to analyze the distribution of cells in the different cell cycle phases by means of flow cytometry. […]

HCT116/p53+/+ = assay: anchorage-independent growth in semisolid agar, HCT116/p53+/+; format: cell-based, human; conditions: 0.5 µM, 10 days, versus DMSO, p ≤ 0.033
Protocol: (§1) Anchorage-independent cell growth is a study which allows predicting the tumorigenicity of tumor cells in vivo. Anchorage-independent cell growth studies were performed for HT29, HCT116/p53^+/+ and HCT116/p53^-/- cells in semisolid agar which were monitored daily to determine the efficiency of the formation of colonies in the presence of carrier (DMSO) or FM19G11. To that end, the starting material was 75 x 10^3 cells suspended in semisolid agar, which were maintained until 10 days later. […] A reduction of the formation of colonies in the HCT116/p53^-/- cells is not observed. The growth of colonies was quantified in three independent experiments by means of counting colonies in the 4 x magnification optical field of an inverted optical microscope.

HCT116/p53-/- = assay: anchorage-independent growth in semisolid agar, HCT116/p53-/-; format: cell-based, human; conditions: 0.5 µM, 10 days, versus DMSO
Protocol: as §1

acetyltransferase p300 = target: T1, acetyltransferase p300 (Mus musculus, UniProt B2RWS6); assay: HAT Colorimetric Assay after anti-p300 immunoprecipitation, C17.2 cells; format: cell-based; conditions: regardless of the percentage of oxygen
T1 construct: endogenous in cells; host or cells: C17.2 mouse neural stem cells
T1 sequence (B2RWS6 whole entry): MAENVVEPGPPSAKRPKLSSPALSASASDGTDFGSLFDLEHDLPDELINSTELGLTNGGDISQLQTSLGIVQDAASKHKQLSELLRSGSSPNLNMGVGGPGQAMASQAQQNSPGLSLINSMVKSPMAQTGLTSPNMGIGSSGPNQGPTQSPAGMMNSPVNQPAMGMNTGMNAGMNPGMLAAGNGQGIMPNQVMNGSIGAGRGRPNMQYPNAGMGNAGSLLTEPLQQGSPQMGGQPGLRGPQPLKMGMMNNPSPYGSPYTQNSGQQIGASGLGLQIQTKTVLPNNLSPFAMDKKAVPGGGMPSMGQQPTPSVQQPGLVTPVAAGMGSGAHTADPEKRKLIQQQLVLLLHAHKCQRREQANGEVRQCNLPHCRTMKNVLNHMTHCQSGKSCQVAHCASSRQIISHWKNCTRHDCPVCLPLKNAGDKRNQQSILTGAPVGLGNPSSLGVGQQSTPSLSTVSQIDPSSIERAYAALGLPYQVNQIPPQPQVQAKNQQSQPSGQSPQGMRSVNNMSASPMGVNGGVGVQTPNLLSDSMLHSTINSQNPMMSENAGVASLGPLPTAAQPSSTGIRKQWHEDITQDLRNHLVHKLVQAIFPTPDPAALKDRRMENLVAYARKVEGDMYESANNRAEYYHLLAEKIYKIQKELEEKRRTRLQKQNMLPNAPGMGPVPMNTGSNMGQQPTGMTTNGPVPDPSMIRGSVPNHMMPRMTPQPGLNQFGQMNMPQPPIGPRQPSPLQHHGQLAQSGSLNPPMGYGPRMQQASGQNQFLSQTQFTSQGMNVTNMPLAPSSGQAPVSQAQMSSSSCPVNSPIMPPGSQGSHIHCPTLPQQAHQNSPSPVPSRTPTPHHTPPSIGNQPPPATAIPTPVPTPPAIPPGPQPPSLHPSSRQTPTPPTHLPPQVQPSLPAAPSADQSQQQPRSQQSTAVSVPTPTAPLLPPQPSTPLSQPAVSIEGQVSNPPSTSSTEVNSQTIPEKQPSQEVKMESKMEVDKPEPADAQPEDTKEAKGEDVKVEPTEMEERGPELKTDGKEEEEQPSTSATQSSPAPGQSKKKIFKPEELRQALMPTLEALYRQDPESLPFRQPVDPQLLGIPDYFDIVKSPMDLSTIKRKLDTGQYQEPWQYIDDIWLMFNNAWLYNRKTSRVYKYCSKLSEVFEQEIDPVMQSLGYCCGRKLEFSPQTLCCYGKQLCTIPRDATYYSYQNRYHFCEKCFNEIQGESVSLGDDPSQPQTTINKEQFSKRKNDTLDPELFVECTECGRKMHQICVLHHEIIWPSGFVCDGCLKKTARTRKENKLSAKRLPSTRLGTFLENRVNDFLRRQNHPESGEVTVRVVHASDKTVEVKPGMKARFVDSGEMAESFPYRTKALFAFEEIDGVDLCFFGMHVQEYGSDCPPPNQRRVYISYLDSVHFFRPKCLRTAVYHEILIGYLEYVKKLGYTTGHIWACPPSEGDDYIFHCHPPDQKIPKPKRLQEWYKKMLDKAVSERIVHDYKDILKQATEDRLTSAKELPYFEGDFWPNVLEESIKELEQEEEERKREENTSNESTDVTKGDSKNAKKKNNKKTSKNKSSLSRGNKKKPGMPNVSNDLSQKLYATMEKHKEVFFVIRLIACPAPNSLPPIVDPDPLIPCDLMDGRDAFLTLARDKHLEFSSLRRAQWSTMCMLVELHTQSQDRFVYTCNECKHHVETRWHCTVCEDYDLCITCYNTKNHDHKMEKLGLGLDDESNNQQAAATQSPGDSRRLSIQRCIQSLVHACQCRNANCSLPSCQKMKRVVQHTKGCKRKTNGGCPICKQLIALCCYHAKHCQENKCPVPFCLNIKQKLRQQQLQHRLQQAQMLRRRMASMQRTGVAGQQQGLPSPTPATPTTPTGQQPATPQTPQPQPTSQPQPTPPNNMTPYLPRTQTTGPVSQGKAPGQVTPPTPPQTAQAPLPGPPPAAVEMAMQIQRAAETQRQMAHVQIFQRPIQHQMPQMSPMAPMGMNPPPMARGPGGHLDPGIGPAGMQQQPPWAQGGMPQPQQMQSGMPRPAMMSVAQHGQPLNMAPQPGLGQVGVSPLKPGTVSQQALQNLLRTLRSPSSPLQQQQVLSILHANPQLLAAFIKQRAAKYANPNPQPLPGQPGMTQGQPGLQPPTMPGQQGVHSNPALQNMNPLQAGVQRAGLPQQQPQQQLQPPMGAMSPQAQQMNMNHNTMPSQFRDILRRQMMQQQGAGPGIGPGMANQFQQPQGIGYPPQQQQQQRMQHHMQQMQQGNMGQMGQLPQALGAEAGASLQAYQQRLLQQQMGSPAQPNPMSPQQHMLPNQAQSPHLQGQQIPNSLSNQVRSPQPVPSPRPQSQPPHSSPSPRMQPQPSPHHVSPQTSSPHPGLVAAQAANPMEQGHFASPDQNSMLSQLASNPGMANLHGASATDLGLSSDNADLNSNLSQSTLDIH
Protocol: Since FM19G11 was capable of affecting the degree of acetylation of histone H3 and therefore the conformation of chromatin, it was evaluated if FM19G11 favored the transfer of acetyl groups to histone H3 or, on the contrary, prevented histone H3 from being deacetylated. Both effects would cause an increase of the degree of acetylation of histone H3. Immunoprecipitation assays were performed with an antibody recognizing acetyltransferase p300 and then assays for measuring the acetyltransferase activity by means of using the kit "HAT Colorimetric Assay" (BioVision) were carried out. This method consists of detecting NADH since peptide acetylation causes the release of the free form of Coenzyme A, which serves as an essential coenzyme for producing NADH.
The protein extracts were previously immunoprecipitated with an anti-p300 antibody and the acetyltransferase activity measured by the detection of NADH. The evaluation of the histone deacetylase (HDAC) activity (Figure 34 B) was carried out with protein extracts of HeLa cells treated with different concentrations of FM19G11. As a positive control, a fixed concentration of TSA (1 µM) was included and extracts of untreated cells were used as a control. The experiments were carried out following the instructions of the Biomol kit for detecting histone deacetylase activity (HDAC Fluorimetric Cellular Activity Assay, Biomol, Cat. No. AK-503). […]

Cc1ccc(C(=O)COC(=O)c2cccc(NC(=O)c3ccc([N+](=O)[O-])cc3[N+](=O)[O-])c2)cc1 [FM19G11, 2-oxo-2-(p-tolyl)ethyl 3-((2,4-dinitro)benzamido)benzoate]
IC50 (HIF): 0.08 µM
IC50 (HIF; 6 h, read-out: IC50 from dose response curve (Figure 2 B)): 0.08 µM
IC50 (HIF; read-out: IC50 HRE (µM)): 0.08 µM
G1/S phase cycle arrest (HCT116/p53+/+ cells; 5 or 10 µM, after 72 hours, more evident after 6 days): caused G1/S phase cycle arrest
S phase cycle arrest on simultaneous incubation with rapamycin (HCT116/p53+/+ cells; FM19G11 (10 µM) + rapamycin (100 pmol)): prevented
growth of colonies in semisolid agar (HCT116/p53+/+): significant decrease
reduction of the formation of colonies in semisolid agar (HCT116/p53-/-): not observed
acetyltransferase activity of the immunoprecipitated fraction (acetyltransferase p300): increase of the acetyltransferase activity
